Measurements: article PMC12384454, “Study of the Lipophilicity of Tetracyclic Anticancer Azaphenothiazines” (Biomolecules, 2025)

Tested on: MDA
Test: not given
Design: method as in earlier work
Conditions: MTT assay; cited from earlier work
In the case of CCOC(=O)NCCCN1c2cc(Cl)ccc2Sc2cc3ccccc3nc21 [compound 8], the IC50 is given as under 100 µM.
In the case of Clc1ccc2c(c1)N(CCN1CCCCC1)c1nc3ccccc3cc1S2 [compound 4], the IC50 is listed as under 100 µM.
In the case of Cc1ccc(S(=O)(=O)NCCCCN2c3cc(Cl)ccc3Sc3cc4ccccc4nc32)cc1 [compound 17], the IC50 is listed as under 100 µM.
In the case of CS(=O)(=O)NCCCN1c2cc(Cl)ccc2Sc2cc3ccccc3nc21 [compound 10], the IC50 is given as under 100 µM.
In the case of O=C(NCCCl)NCCCN1c2cc(Cl)ccc2Sc2cc3ccccc3nc21 [compound 9], the IC50 is listed as 48.6 ± 7.3 µM.

Same assay, conditions: selectivity index vs HaCaT; cited from earlier work
For CCOC(=O)NCCCN1c2cc(Cl)ccc2Sc2cc3ccccc3nc21 [compound 8], the “SI MDA” value is given as 1.0.
In the case of Clc1ccc2c(c1)N(CCN1CCCCC1)c1nc3ccccc3cc1S2 [compound 4], the “SI MDA” value is given as 1.0.
For Cc1ccc(S(=O)(=O)NCCCCN2c3cc(Cl)ccc3Sc3cc4ccccc4nc32)cc1 [compound 17], the “SI MDA” value is given as 1.0.
For CS(=O)(=O)NCCCN1c2cc(Cl)ccc2Sc2cc3ccccc3nc21 [compound 10], the “SI MDA” value is listed as 1.0.
For O=C(NCCCl)NCCCN1c2cc(Cl)ccc2Sc2cc3ccccc3nc21 [compound 9], the “SI MDA” value is given as 2.0.

Tested on: MiaPaCa-2
Test: not given
Design: method as in earlier work
Conditions: MTT assay; cited from earlier work
In the case of O=C(NCCCl)NCCCN1c2cc(Cl)ccc2Sc2cc3ccccc3nc21 [compound 9], the IC50 is listed as 23.2 ± 2.7 µM.

Same assay, conditions: selectivity index vs HaCaT; cited from earlier work
For Cc1ccc(S(=O)(=O)NCCCCN2c3cc(Cl)ccc3Sc3cc4ccccc4nc32)cc1 [compound 17], the “SI MiaPaCa-2” value is given as 1.0.
In the case of O=C(NCCCl)NCCCN1c2cc(Cl)ccc2Sc2cc3ccccc3nc21 [compound 9], the “SI MiaPaCa-2” value is listed as 4.3.

Tested on: HCT-116 cells
Test: not given
Conditions: MTT assay; read-out: IC50 HCT116; cited from earlier work
For O=C(NCCCl)NCCCN1c2cc(Cl)ccc2Sc2cc3ccccc3nc21 [compound 9], the IC50 is given as 10.4 ± 1.6 µM.

Same assay, conditions: selectivity index vs HaCaT; cited from earlier work
For O=C(NCCCl)NCCCN1c2cc(Cl)ccc2Sc2cc3ccccc3nc21 [compound 9], the “SI HCT116” value is given as 8.8.

Tested on: A549 cells
Test: not given
Conditions: MTT assay; cited from earlier work
In the case of CCOC(=O)NCCCN1c2cc(Cl)ccc2Sc2cc3ccccc3nc21 [compound 8], the IC50 is given as 86.6 ± 0.8 µM.
For Clc1ccc2c(c1)N(CCN1CCCCC1)c1nc3ccccc3cc1S2 [compound 4], the IC50 is given as 63.8 ± 8.5 µM.
In the case of Cc1ccc(S(=O)(=O)NCCCCN2c3cc(Cl)ccc3Sc3cc4ccccc4nc32)cc1 [compound 17], the IC50 is listed as 9.45 µM.
For O=C(NCCCl)NCCCN1c2cc(Cl)ccc2Sc2cc3ccccc3nc21 [compound 9], the IC50 is given as 9.3 ± 1.2 µM.

Same assay, conditions: selectivity index vs HaCaT; cited from earlier work
In the case of CCOC(=O)NCCCN1c2cc(Cl)ccc2Sc2cc3ccccc3nc21 [compound 8], the “SI A549” value is given as 1.1.
For Clc1ccc2c(c1)N(CCN1CCCCC1)c1nc3ccccc3cc1S2 [compound 4], the “SI A549” value is given as 1.6.
For Cc1ccc(S(=O)(=O)NCCCCN2c3cc(Cl)ccc3Sc3cc4ccccc4nc32)cc1 [compound 17], the “SI A549” value is listed as 10.5.
In the case of CS(=O)(=O)NCCCN1c2cc(Cl)ccc2Sc2cc3ccccc3nc21 [compound 10], the “SI A549” value is listed as 1.0.
In the case of O=C(NCCCl)NCCCN1c2cc(Cl)ccc2Sc2cc3ccccc3nc21 [compound 9], the “SI A549” value is given as 10.7.

Tested on: PC3
Test: not given
Design: method as in earlier work
Conditions: MTT assay; cited from earlier work
In the case of Cc1ccc(S(=O)(=O)NCCCCN2c3cc(Cl)ccc3Sc3cc4ccccc4nc32)cc1 [compound 17], the IC50 is listed as 48.6 ± 4.7 µM.
In the case of O=C(NCCCl)NCCCN1c2cc(Cl)ccc2Sc2cc3ccccc3nc21 [compound 9], the IC50 is given as 34.8 ± 9.8 µM.

Same assay, conditions: selectivity index vs HaCaT; cited from earlier work
For Cc1ccc(S(=O)(=O)NCCCCN2c3cc(Cl)ccc3Sc3cc4ccccc4nc32)cc1 [compound 17], the “SI PC3” value is listed as 2.0.
For O=C(NCCCl)NCCCN1c2cc(Cl)ccc2Sc2cc3ccccc3nc21 [compound 9], the “SI PC3” value is listed as 2.8.

Tested on: HaCaT cells
Test: not given
Conditions: MTT assay, normal cells; cited from earlier work
In the case of CCOC(=O)NCCCN1c2cc(Cl)ccc2Sc2cc3ccccc3nc21 [compound 8], the IC50 is given as under 100 µM.
In the case of Clc1ccc2c(c1)N(CCN1CCCCC1)c1nc3ccccc3cc1S2 [compound 4], the IC50 is given as under 100 µM.
For Cc1ccc(S(=O)(=O)NCCCCN2c3cc(Cl)ccc3Sc3cc4ccccc4nc32)cc1 [compound 17], the IC50 is listed as under 100 µM.
In the case of CS(=O)(=O)NCCCN1c2cc(Cl)ccc2Sc2cc3ccccc3nc21 [compound 10], the IC50 is given as under 100 µM.
For O=C(NCCCl)NCCCN1c2cc(Cl)ccc2Sc2cc3ccccc3nc21 [compound 9], the IC50 is given as under 100 µM.

Tested on: not listed separately
Test: RP-TLC lipophilicity (RM0, log PTLC, C0), silica gel RP-18F254, acetone/TRIS buffer pH 7.4
Type: physicochemical
Conditions: RP-TLC, RM extrapolated to 0% acetone, TRIS buffer pH 7.4
Method: In connection with this, in the next stage of the study, the parameters of lipophilicity of the tested compounds were determined experimentally. […] This technique was used to determine the retardation coefficient Rf for each compound in eight mobile phases consisting of acetone and Tris buffer in different volume ratios (50–85% acetone). Next, the Rf values were converted to the chromatographic parameter RM, and then the obtained values were extrapolated to 0% acetone content in the mobile phase obtaining the lipophilicity parameter RM0 (Table S2).
The parameter RM0 can be correlated to an experimental log P lipophilicity parameter of chemical molecules (log PTLC) by applying a calibration curve. The calibration curve was obtained by determining the Rf value for standard substances with a known log Plit value using the RP-TLC method under conditions analogous to those of the tested substances. After calculating the RM and RM0 values, the dependence of the log Plit parameter on the experimentally obtained RM0 values for standards was determined (Table 2).
The chromatographic parameter of lipophilicity was determined by means of Soczewiński–Wachtmeister’s method. […] The acetone ratio was 50 to 85% (v/v) in increments of 5%. The tested compounds in the form of an ethanol solution at a concentration of 2.0 mg/mL each were spotted on chromatographic plates at an amount of 2 µL each. Before analysis, the chromatography chamber (Camag, Switzerland) was saturated with the mobile phase (50 mL) for 30 min. After development at 20 ± 2 °C and subsequent drying, the chromatograms were observed under UV light at 254 nm by using a Camag UV lamp (Muttenz, Switzerland). Each analysis was performed in triplicate. The average value of the retardation factor (Rf) was used to calculate RM using Equation (1):(1) RM=log(1−Rf/Rf)
In addition, the chromatographic parameter of lipophilicity RM0 and b value allowed the determination of the chromatography hydrophobic index C0 by using the following formula:(3) C0=− RM0/b
For CCOC(=O)NCCCN1c2cc(Cl)ccc2Sc2cc3ccccc3nc21 [compound 8], the RM0 was 3.76.
For Clc1ccc2c(c1)N(CCN1CCCCC1)c1nc3ccccc3cc1S2 [compound 4], the RM0 was 4.01.
Cc1ccc(S(=O)(=O)NCCCCN2c3cc(Cl)ccc3Sc3cc4ccccc4nc32)cc1 [compound 17] showed an RM0 of 4.68.
Compound CS(=O)(=O)NCCCN1c2cc(Cl)ccc2Sc2cc3ccccc3nc21 [compound 10] has an RM0 of 3.37.
Work on O=C(NCCCl)NCCCN1c2cc(Cl)ccc2Sc2cc3ccccc3nc21 [compound 9] yielded an RM0 of 3.47.

Same assay, conditions: chromatography hydrophobic index, C0 = −RM0/b
Work on CCOC(=O)NCCCN1c2cc(Cl)ccc2Sc2cc3ccccc3nc21 [compound 8] yielded a C0 of 81.74.
Clc1ccc2c(c1)N(CCN1CCCCC1)c1nc3ccccc3cc1S2 [compound 4] gave a C0 of 73.04.
In the case of Cc1ccc(S(=O)(=O)NCCCCN2c3cc(Cl)ccc3Sc3cc4ccccc4nc32)cc1 [compound 17], the C0 is reported as 80.41.
In the case of CS(=O)(=O)NCCCN1c2cc(Cl)ccc2Sc2cc3ccccc3nc21 [compound 10], the C0 is reported as 76.24.
O=C(NCCCl)NCCCN1c2cc(Cl)ccc2Sc2cc3ccccc3nc21 [compound 9] showed a C0 of 76.43.

Same assay, conditions: from RM0 by calibration curve log PTLC = 1.2862RM0 + 0.2061
With CCOC(=O)NCCCN1c2cc(Cl)ccc2Sc2cc3ccccc3nc21 [compound 8] the “log PTLC” value was 5.04.
Clc1ccc2c(c1)N(CCN1CCCCC1)c1nc3ccccc3cc1S2 [compound 4] showed a chromatographic logP of 5.36.
For Cc1ccc(S(=O)(=O)NCCCCN2c3cc(Cl)ccc3Sc3cc4ccccc4nc32)cc1 [compound 17], the chromatographic logP was 6.22.
CS(=O)(=O)NCCCN1c2cc(Cl)ccc2Sc2cc3ccccc3nc21 [compound 10] showed a chromatographic logP of 4.53.
In the case of O=C(NCCCl)NCCCN1c2cc(Cl)ccc2Sc2cc3ccccc3nc21 [compound 9], the chromatographic logP is reported as 4.66.

Tested on: standard strains of staphylococci
Test: not given
Conditions: mainly against standard strains of staphylococci; cited from earlier work
For O=C(NCCCl)NCCCN1c2cc(Cl)ccc2Sc2cc3ccccc3nc21 [compound 9], the antibacterial activity is given as “moderate antibacterial activity”.
